Measurements from patent US10844017B2, “Biaryl compound, preparation method and use thereof” (FUDAN UNIVERSITY, priority 2017, dated 2020).

target: T1, RORγ receptor (B-RORγ LBD / Bioin-SRC1) (Homo sapiens, UniProt P51449); assay: Determination of agonistic activities on RORγ receptors in vitro (dual FRET); assay type: biochemical; settings: average of at least two independent experiments
T1 construct: 40 nM B-RORγ LBD solution
T1 sequence (P51449 269-508 limits assumed): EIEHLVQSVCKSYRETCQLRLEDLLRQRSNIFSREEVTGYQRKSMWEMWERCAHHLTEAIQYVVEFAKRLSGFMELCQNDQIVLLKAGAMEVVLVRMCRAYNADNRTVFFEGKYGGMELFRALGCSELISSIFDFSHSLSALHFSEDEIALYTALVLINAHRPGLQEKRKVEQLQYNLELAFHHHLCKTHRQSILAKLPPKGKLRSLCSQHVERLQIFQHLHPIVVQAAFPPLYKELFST
T1 sequence (Q15788 676-700 partner limits assumed): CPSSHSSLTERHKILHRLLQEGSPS
Description: Determination of Agonistic Activities of Compounds on RORγ Receptors In Vitro The agonistic activities of compounds described herein on RORγ receptor were determined by dual fluorescence resonance energy transfer (dual FRET) experiments. The agonistic activity was expressed by half maximum effect concentration (EC50).
1) Preparation of RORγ Assay Buffer
100 mL of buffer solution was well mixed with […] DTT for use.
2) Preparation of Solutions of Compounds
3) Preparation of protein mixtures a) 40 nM B-RORγ LBD solution was mixed well with 20 nM SA-APC solution and incubated for 15 minutes at room temperature. Then the resulting mixture was further mixed well with 400 nM Biotin and incubated for another 10 minutes at room temperature. […]
b) 40 nM Bioin-SRC1 solution was mixed well with 10 nM SA-eu solution and was incubated for 15 minutes at room temperature. Then the resulting mixture was further mixed well with 200 nM Biotin and was incubated for another 10 minutes at room temperature. […]
d) A mixture (25 μL) of B-RORγ LBD/SA-APC and Bioin-SRC1/SA-eu together with a test compound was added to one of the wells of a 384-well plate, and then the plate was centrifuged for one minute at 1000 rpm, and incubated at room temperature for one hour. The data were read on an Envision microplate detector and EC50 values were calculated.

| EC50 | SMILES |
| --- | --- |
| 0.01 to 0.05 µM | CC(C)Cc1ccc(-c2c(Cl)cc(NCCc3ccc(S(C)(=O)=O)cc3)cc2Cl)cc1C#N [Example 61, 2′,6′-Dichloro-4-isobutyl-4′-((4-(methylsulfonyl)phenethyl)amino)-[1,1′-biphenyl]-3-carbonitrile] |
| 0.5 to 1 µM | CN(C)Cc1ccc(-c2c(Cl)cc(C(=O)NCc3ccc(S(C)(=O)=O)cc3)cc2Cl)cc1C#N [Example 52, 2,6-Dichloro-3′-cyano-4′-((dimethylamino)methyl)-N-(4-(methylsulfonyl)benzyl)-[1,1′-biphenyl]-4-carboxamide] |
| 0.01 to 0.05 µM | CC(C)Cc1ccc(-c2c(Cl)cc(NC(=O)Cc3ccnn3C)cc2Cl)cc1C#N [Example 9B, N-(2,6-dichloro-3′-cyano-4′-isobutyl-[1,1′-biphenyl]-4-yl)-2-(1-methyl-1H-pyrazol-5-yl)acetamide] |
| 0.01 to 0.05 µM | CC(C)Cc1ccc(-c2c(Cl)cc(NC(=O)Cc3cccnc3)cc2Cl)cc1C#N [Example 14, N-(2,6-Dichloro-3′-cyano-4′-isobutyl-[1,1′-biphenyl]-4-yl)-2-(pyridin-3-yl)acetamide] |
| 0.01 to 0.05 µM | CCS(=O)(=O)c1ccc(CC(=O)Nc2cc(Cl)c(-c3ccc(CC4CCCC4)c(C#N)c3)c(Cl)c2)cc1 [Example 45, N-(2,6-Dichloro-3′-cyano-4′-(cyclopentylmethyl)-[1,1′-biphenyl]-4-yl)-2-(4-(ethylsulfonyl)phenyl)acetamide] |
| 0.01 to 0.05 µM | CC(C)Cc1ccc(-c2c(Cl)cc(NC(=O)Cc3cccc(S(C)(=O)=O)c3)cc2Cl)cc1C#N [Example 18, N-(2,6-Dichloro-3′-cyano-4′-isobutyl-[1,1′-biphenyl]-4-yl)-2-(3-(methylsulfonyl)phenyl)acetamide] |
| 0.01 to 0.05 µM | CC(C)CC(=O)Nc1cc(Cl)c(-c2ccc(CC(C)C)c(C#N)c2)c(Cl)c1 [Example 4, N-(2,6-dichloro-3′-cyano-4′-isobutyl-[1,1′-biphenyl]-4-yl)-3-methylbutanamide] |
| 0.01 to 0.05 µM | CC(C)Cc1ccc(-c2c(Cl)cc(NC(=O)Cc3ccc(=O)[nH]c3)cc2Cl)cc1C#N [Example 8, N-(2,6-Dichloro-3′-cyano-4′-isobutyl-[1,1′-biphenyl]-4-yl)-2-(6-oxo-1,6-dihydropyridin-3-yl)acetamide] |
| 0.01 to 0.05 µM | CCS(=O)(=O)c1ccc(CC(=O)Nc2cc(Cl)c(-c3ccc(C=C4CCC4)c(C#N)c3)c(Cl)c2)cc1 [Example 44, N-(2,6-Dichloro-3′-cyano-4′-(cyclobutylidenemethyl)-[1,1′-biphenyl]-4-yl)-2-(4-(ethylsulfonyl)phenyl)acetamide] |
| 0.01 to 0.05 µM | CCC(=O)Nc1cc(Cl)c(-c2ccc(CC(C)C)c(C#N)c2)c(Cl)c1 [Example 1, N-(2,6-Dichloro-3′-cyano-4′-isobutyl-[1,1′-biphenyl]-4-yl)propionamide] |
| < 0.01 µM | CCS(=O)(=O)c1ccc(CC(=O)Nc2ccc(-c3ccc(CC(C)C)c(C#N)c3)c(Cl)c2)cc1 [Example 31, N-(2-Chloro-3′-cyano-4′-isobutyl-[1,1′-biphenyl]-4-yl)-2-(4-(ethylsulfonyl)phenyl)acetamide] |
| 0.05 to 0.1 µM | CC(C)Cc1ccc(-c2c(Cl)cc(NC(=O)c3ccccc3)cc2Cl)cc1C#N [Example 3, N-(2,6-Dichloro-3′-cyano-4′-isobutyl-[1,1′-biphenyl]-4-yl)benzamide] |
| 0.01 to 0.05 µM | CC(C)Cc1ccc(-c2c(Cl)cc(NC(=O)NCc3ccc(S(C)(=O)=O)cn3)cc2Cl)cc1C#N [Example 56, 1-(2,6-Dichloro-3′-cyano-4′-isobutyl-[1,1′-biphenyl]-4-yl)-3-((5-(methylsulfonyl)pyridin-2-yl)methyl)urea] |
| 0.01 to 0.05 µM | CN(C)Cc1ccc(-c2c(Cl)cc(NC(=O)NCc3ccc(S(C)(=O)=O)cc3)cc2Cl)cc1C#N [Example 59, 1-(2,6-Dichloro-3′-cyano-4′-((dimethylamino)methyl)-[1,1′-biphenyl]-4-yl)-3-(4-(methylsulfonyl)benzyl)urea] |
| 0.01 to 0.05 µM | CC(C)Cc1ccc(-c2c(Cl)cc(NC(=O)NCc3ccc(CC(=O)O)cc3)cc2Cl)cc1C#N [Example 57, 2-(4-((3-(2,6-Dichloro-3′-cyano-4′-isobutyl-[1,1′-biphenyl]-4-yl)ureido)methyl)phenyl)acetic acid] |
| 0.01 to 0.05 µM | CCS(=O)(=O)c1ccc(CC(=O)Nc2cc(Cl)c(-c3ccc(CC(C)C)cc3C#N)c(Cl)c2)cc1 [Example 28, N-(2,6-dichloro-2′-cyano-4′-isobutyl-[1,1′-biphenyl]-4-yl)-2-(4-(ethylsulfonyl)phenyl)acetamide] |
| 0.01 to 0.05 µM | CC(C)Cc1ccc(-c2c(Cl)cc(NC(=O)Cc3ccccc3)cc2Cl)cc1C#N [Example 7, N-(2,6-Dichloro-3′-cyano-4′-isobutyl-[1,1′-biphenyl]-4-yl)-2-phenylacetamide] |
| 0.01 to 0.05 µM | CC(C)Cc1ccc(-c2c(Cl)cc(NC(=O)Cc3ccc(C#N)cc3)cc2Cl)cc1C#N [Example 10, 2-(4-Cyanophenyl)-N-(2,6-dichloro-3′-cyano-4′-isobutyl-[1,1′-biphenyl]-4-yl)acetamide] |

More lines, now with the values behind:

| SMILES | EC50 |
| --- | --- |
| CC(C)Cc1ccc(-c2c(Cl)cc(NC(=O)NCc3ccc(S(C)(=O)=O)cc3)cc2Cl)cc1C#N [Example 54, 1-(2,6-Dichloro-3′-cyano-4′-isobutyl-[1,1′-biphenyl]-4-yl)-3-(4-(methylsulfonyl)benzyl)urea] | 0.01 to 0.05 µM |
| CCS(=O)(=O)c1ccc(CC(=O)Nc2cc(Cl)c(-c3ccc(CC(C)C)c(F)c3)c(Cl)c2)cc1 [Example 27, N-(2,6-Dichloro-3′-fluoro-4′-isobutyl-[1,1′-biphenyl]-4-yl)-2-(4-(ethylsulfonyl)phenyl)acetamide] | 0.01 to 0.05 µM |
| CN(C)Cc1ccc(-c2c(Cl)cc(NCCc3ccc(S(C)(=O)=O)cc3)cc2Cl)cc1C#N [Example 63, 2′,6′-Dichloro-4-((dimethylamino)methyl)-4′-((4-(methylsulfonyl)phenethyl)amino)-[1,1′-biphenyl]-3-carbonitrile] | < 0.01 µM |
| CCS(=O)(=O)c1ccc(CC(=O)Nc2cc(Cl)c(-c3ccc(CN4CCCC4)c(C#N)c3)c(Cl)c2)cc1 [Example 39, N-(2,6-Dichloro-3′-cyano-4′-(pyrrolidin-1-ylmethyl)-[1,1′-biphenyl]-4-yl)-2-(4-(ethylsulfonyl)phenyl)acetamide] | 0.01 to 0.05 µM |
| CC(C)Cc1ccc(-c2c(Cl)cc(NC(=O)Cc3ccncc3)cc2Cl)cc1C#N [Example 15, N-(2,6-Dichloro-3′-cyano-4′-isobutyl-[1,1′-biphenyl]-4-yl)-2-(pyridin-4-yl)acetamide] | 0.01 to 0.05 µM |
| CC(C)Cc1ccc(-c2c(Cl)cc(C(=O)NCc3ccc(S(C)(=O)=O)cc3)cc2Cl)cc1C#N [Example 48, 2,6-Dichloro-3′-cyano-4′-isobutyl-N-(4-(methylsulfonyl)benzyl)-[1,1′-biphenyl]-4-carboxamide] | 0.05 to 0.1 µM |
| CCS(=O)(=O)c1ccc(CC(=O)Nc2ccc(-c3ccc(CC(C)C)cc3C(F)(F)F)c(Cl)c2)cc1 [Example 29, N-(2-chloro-4′-isobutyl-2′-(trifluoromethyl)-[1,1′-biphenyl]-4-yl)-2-(4-(ethylsulfonyl)phenyl)acetamide] | 0.01 to 0.05 µM |
| CCS(=O)(=O)c1ccc(CC(=O)Nc2cc(Cl)c(-c3ccc(CN4CCC4)c(C#N)c3)c(Cl)c2)cc1 [Example 38, N-(4′-(Azetidin-1-ylmethyl)-2,6-dichloro-3′-cyano-[1,1′-biphenyl]-4-yl)-2-(4-(ethylsulfonyl)phenyl)acetamide] | > 1 µM |
| CC(C)Cc1ccc(-c2c(Cl)cc(NC(=O)Cc3ccc(P(C)(C)=O)cc3)cc2Cl)cc1C#N [Example 23, N-(2,6-Dichloro-3′-cyano-4′-isobutyl-[1,1′-biphenyl]-4-yl)-2-(4-(dimethylphosphoryl)phenyl)acetamide] | 0.01 to 0.05 µM |
| CCS(=O)(=O)c1ccc(CC(=O)Nc2ccc(-c3ccc(CC(C)C)cc3OC(F)(F)F)c(Cl)c2)cc1 [Example 30, N-(2-Chloro-4′-isobutyl-2′-(trifluoromethoxy)-[1,1′-biphenyl]-4-yl)-2-(4-(ethylsulfonyl)phenyl)acetamide] | 0.01 to 0.05 µM |
| CC(C)Cc1ccc(-c2c(Cl)cc(NC(=O)Cc3ccc(CC(=O)O)cc3)cc2Cl)cc1C#N [Example 25, 2-(4-(2-((2,6-Dichloro-3′-cyano-4′-isobutyl-[1,1′-biphenyl]-4-yl)amino)-2-oxoethyl)phenyl)acetic acid] | < 0.01 µM |
| CNS(=O)(=O)c1ccc(CC(=O)Nc2cc(Cl)c(-c3ccc(CC(C)C)c(C#N)c3)c(Cl)c2)cc1 [Example 22, N-(2,6-Dichloro-3′-cyano-4′-isobutyl-[1,1′-biphenyl]-4-yl)-2-(4-(N-methylsulfamoyl)phenyl)acetamide] | 0.01 to 0.05 µM |
| CCS(=O)(=O)c1ccc(CNC(=O)c2cc(Cl)c(-c3ccc(CN(C)C)c(C#N)c3)c(Cl)c2)cc1 [Example 51, 2,6-Dichloro-3′-cyano-4′-((dimethylamino)methyl)-N-(4-(ethylsulfonyl)benzyl)-[1,1′-biphenyl]-4-carboxamide] | 0.1 to 0.5 µM |
